How the values were obtained:
Type in all cases: cell-based, human
[1] = system: P301S v2L HEK biosensor cells; test: Seeding assay, percent FRET positivity by flow cytometry, v2L biosensor cells
Source text: A lentiviral FM5-YFP plasmid containing the tau segment 246 to 378 with the P301S mutation, was used as a template, where the human ubiquitin C (Ubc) promoter was replaced with a human cytomegalovirus (CMV) promoter, and the YFP sequence was replaced with a mCerulean 3 or mClover3 coding sequences (see FIGS. 1 and 2). The sequence linking the tau segment and the coding sequence of the fluorophore (Cer or Co) was optimized to the following sequence: GSAGSAAGSGEF (SEQ ID NO:41). Low passage HEK293T cells (P5) were thawed and passaged with antibiotic free media twice before being co-administration of lentivirus encoding tau RD(P301S)-Clo/Cer tau lentivirus. After four passages, single cells were cell sorted by FACS based on low or high signal for both mCerulean3 and mClover3, termed version 2 low (v2L) or version 2 high (v2H). Monoclonal colonies were expanded and characterized as described.
Wild-type full-length (2N4R) tau was synthesized and purified. […]
(§1) P301S4 or P301S v2L or v2H HEK biosensor cells were plated in 96-well plates at 20,000 cells per well 24 hours before treatment. dilutions of recombinant tau fibrils or brain homogenates in Opti-MEM (Thermo Fisher), 30 μl total volume, or immunoprecipitation eluents 120 μl total volume, were allowed to come to room temperature. […] After 48 hours, cells were trypsinized and fixed in 2% PFA and suspended in flow cytometry buffer (1×HBSS, 1% FBS, 1 mM EDTA). percent FRET positivity was determined of each well by flow cytometry.
(§2) The sensitivity of v2L and v2H cells was first compared to the original line. synthetic fibrils based on exposure of recombinant tau protein to heparin were created. The fibrils were incubated with cells in the absence or presence of Lipofectamine 2000 for 48 h and quantified the percentage of FRET-positive cells using flow cytometry to determine the lower limit of detection. […] In the absence of cationic lipid reagent, 1.6 pM tau were detected in v2L cells and 0.78 pM tau in v2H cells (FIGS. 5A and 5B). […]

[2] = system: P301S v2H HEK biosensor cells; test: Seeding assay, percent FRET positivity by flow cytometry, v2H biosensor cells; settings: for lower limit of detection (LLD), lowest quantity producing FRET positivity statistically distinguishable from background: v2H, T-test p<0.05
[3] = system: P301S v1 biosensor cells; test: Seeding assay, percent FRET positivity by flow cytometry, v1 (original) biosensor cells; settings: T-test p<0.05
Experimental: Wild-type full-length (2N4R) tau was synthesized and purified. 8 μM purified recombinant tau was incubated with 8 uM heparin and 10 mM DTT at 37 C for 48 h in 10 mM HEPES, 100 mM NaCL, PH 7.4. The quality of fibrils was verified by transmission electron microscopy.
as §1, §2

[4] = system: HEK biosensor cells; test: Immunoprecipitation from spiked control CSF followed by seeding assay; settings: 1 ml control CSF spiked
Experimental: 50 μl of Dynabeads Protein A (Thermo Fisher) were washed per the manufacturer protocol and incubated with 10 μg of polyclonal antibody (TauA, Diamond Lab) against the first microtubule-binding repeat of tau for 1 hour at room temperature. washed beads were then added to 1 or 5 ml of human CSF and incubated with rotation overnight at 4° C. Captured proteins were eluted in low pH elution buffer (Pierce) and neutralized the buffer with 1:10 1M Tris pH 8.5 with a final volume of 120 μl.
as §1
To determine the lower limit of detection of tau seeds in CSF, control CSF were spiked with small quantities of AD frontal cortex protein (brain AD1) or recombinant tau fibrils. the AD seeds were concentrated and purified using a rabbit polyclonal antibody directed against tau RD (TauA).

## recombinant tau fibrils: Wild-type full-length (2N4R) recombinant tau incubated with heparin and DTT at 37 C for 48 h to form fibrils
[1]; v2L cells, absence of cationic lipid reagent, FIGS. 5A and 5B
  tau detected (lower limit of detection): 1.6 pM
[1]; v2L cells, presence of Lipofectamine 2000, 48 h, FIGS. 4A and 4B
  lower limit of detection (detected, monomer equivalent): 10 fM
[1]; v2L lines versus original biosensor line
  sensitivity versus the original line: approximately 10 fold
[2]; v2H cells, absence of cationic lipid reagent, FIGS. 5A and 5B
  tau detected (lower limit of detection): 0.78 pM
[2]; v2H cells, presence of Lipofectamine 2000, 48 h, FIGS. 4A and 4B
  lower limit of detection (detected, monomer equivalent): 32 aM
[2]; v2H line versus original biosensor line
  sensitivity versus the original biosensor cell line: more than 300 fold
[2]; Lipofectamine seeding
  lower limit of detection (LLD), lowest quantity producing FRET positivity statistically distinguishable from background: 32 amol per sample
[2]; naked seeding
  lower limit of detection (LLD), lowest quantity producing FRET positivity statistically distinguishable from background: 0.78 pmol
[3]; v1, Lipofectamine seeding
  lower limit of detection (LLD), lowest quantity producing FRET positivity statistically distinguishable from background: 10 fmol per sample
[3]; v1, naked seeding
  lower limit of detection (LLD), lowest quantity producing FRET positivity statistically distinguishable from background: 1.6 pmol
[4]; IP with TauA antibody, FIG. 7C
  seeding activity detected in spiked CSF after IP, lowest level (monomer equivalent): 100 attomolar
[4]; IP, FIG. 7
  seeding detected from spiked samples down to (tau monomer equivalent): 100 attomoles
